Like-named read-outs stand apart in the source and are kept apart here.
Columns and labels:
[1] = molecular target: human GABAA α1β3γ2 receptor (Homo sapiens (Human), UniProt P14867+P18507); experiment: Radioligand binding assay, competition for [3H]Flumazenil, γ2-containing GABAA subtypes; conditions: for γ2/γ1 Selectivity Ratio: Ki α1β3γ2 (nM)/Ki α2β2γ1 (nM); for LogSel: Log[Ki α1β3γ2 (nM)/Ki α2β2γ1 (nM)]
Experimental: Membrane Preparation and Binding Assay for γ2-containing GABAA Subtypes
The affinity of compounds at GABAA γ2 subunit-containing receptors was measured by competition for [^3H]Flumazenil (81.1 Ci/mmol; Roche) binding to HEK293F cells expressing human (transiently transfected) receptors of composition α1β3γ2.
Harvested pellets from HEK293F cells expressing the different GABAA γ2 receptor subtypes were resuspended in Mannitol Buffer pH 7,2-7,4 and processed as described above for the cells expressing the GABAA γ1 subunit-containing receptors.
Assays were incubated to equilibrium for 1 hour at 4° C, and harvested onto GF/C uni-filters (Packard) by filtration using a Packard harvester and washing with ice-cold wash buffer (50 mM Tris; pH 7.5). After anhydrousing, filter-retained radioactivity was detected by liquid scintillation counting. Ki values were calculated using Excel-Fit (Microsoft) and are the means of two determinations.

[2] = molecular target: h-GABA-A α2β2γ1 receptor expressed in Xenopus laevis oocytes (Homo sapiens (Human), UniProt P47869+Q8N1C3); experiment: Two-electrode voltage clamp electrophysiology in Xenopus oocytes expressing GABAA receptors; format: cell-based; conditions: for Efficacy (GABA)%: % modulation of GABA EC20 = 100*(Fold increase-1), compound at 30-fold Ki α2β2γ1; for Fold increase h-GABA-A α2β2γ1 oocyte @ 30-fold Ki: GABA EC20, test compound at approx. 30-fold its Ki α2β2γ1, at least 3 oocytes
Excerpt: Functional Expression of GABAA Receptors:
Xenopus Oocytes Preparation
Xenopus laevis oocytes at maturation stages V-VI were used for the expression of cloned mRNA encoding GABAA receptor subunits. Oocytes ready for RNA micro-injection were bought from Ecocyte, Castrop-Rauxel, Germany and stored in modified Barth's medium (composition in mM: NaCl 88, KCl 1, NaHCO3 2.4, HEPES 10, MgSO4 0.82, CaNO3 0.33, CaCl2 0.33, pH=7.5) at 20 C. until the experiment.
Xenopus Oocytes Microinjection
Oocytes were plated in 96-well plates for microinjection using the Roboinject automated instrument (MultiChannelSystems, Reutlingen, Germany). Approximately 50 nL of an aqueous solution containing the RNA transcripts for the subunits of the desired GABAA receptor subtype was injected into each oocyte. […] Oocytes were kept in modified Barth's medium (composition in mM: NaCl 88, KCl 1, NaHCO3 […], HEPES 10, MgSO4 0.82, CaNO3 0.33, CaCl2 0.33, pH=7.5) at 20° C. until the experiment.
Electrophysiological experiments were performed using the Roboocyte instrument (MultiChannelSystems, Reutlingen, Germany) on days 3 to 5 after the micro-injection of mRNA. During the experiment the oocytes were constantly superfused by a solution containing (in mM) NaCl 90, KCl 1, HEPES 5, MgCl: 1, CaCl, 1 (pH 7.4). Oocytes were impaled by two glass microelectrodes (resistance: 0.5-0.8 MS2) which were filled with a solution containing KCl 1M +K-acetate 1.5 M and voltage-clamped to −80 mV. The recordings were performed at room temperature using the Roboocyte two-electrode voltage clamp system (Multichannelsystem). After an initial equilibration period of 1.5 min GABA was added for 1.5 min at a concentration evoking approximately 20% of a maximal current response (EC20). After another rest interval of 2.5 min GABA was again added evoking a response of similar amplitude and shape. […] Current traces were recorded at a digitization rate of 10 Hz during and shortly before and after the GABA application.
Each compound and concentration was tested on at least 3 oocytes. Different oocytes were used for different compound concentrations.
For the analysis, the digitized current traces of the first and second GABA response were superimposed and, if necessary, rescaled to equal maximal amplitudes. The ratio between the two responses during the time interval of test compound application was calculated point by point. The extremum of the resulting “ratio trace” was taken as the efficacy (“Fold increase”) of the compound expressed as “% modulation of GABA EC” (100* (Fold increase-1)).

Row | SMILES | Ki ([1]; HEK293F cell membranes, [3H]Flumazenil 1 nM, mean of two determinations, read-out: Ki h-GABAA α1β3γ2) | γ2/γ1 Selectivity Ratio [1] | LogSel [1] | Efficacy (GABA)% [2] | Fold increase h-GABA-A α2β2γ1 oocyte @ 30-fold Ki [2] | Ki [1]
1 | Cc1nnc2n1-c1sc3c(c1C(c1c(F)cccc1F)=NC2)C[C@@H](C#N)C3 [Example 2, (13R)-9-(2,6-difluorophenyl)-3-methyl-16-thia-2,4,5,8-tetrazatetracyclo [8.6.0.02,6.011,15]hexadeca-1(10),3,5,8,11(15)-pentaene-13-carbonitrile] | 2.16 µM | 50.7 | 1.71 | 35% | 1.35 | 
2 | Cc1nnc2n1-c1sc3c(c1C(c1c(F)cccc1Cl)=NC2)C[C@@H](C(F)F)C3 [Example 4, (13R)-9-(2-chloro-6-fluoro-phenyl)-13-(difluoromethyl)-3-methyl-16-thia-2,4,5,8-tetrazatetracyclo [8.6.0.02,6.011,15]hexadeca-1(10),3,5,8,11(15)-pentaene] |  | 74.8 | 1.87 | 51% | 1.51 | 0.343 µM
3 | Fc1cccc(Cl)c1C1=NCc2nnc(C3CC3)n2-c2sc3c(c21)C[C@@H](C(F)F)C3 [Example 6, (13R)-9-(2-chloro-6-fluoro-phenyl)-3-cyclopropyl-13-(difluoromethyl)-16-thia-2,4,5,8-tetrazatetracyclo [8.6.0.02,6.011,15]hexadeca-1(10),3,5,8,11(15)-pentaene] |  | 97.7 | 1.99 | 85% | 1.85 | 0.647 µM
4 | Fc1cccc(F)c1C1=NCc2nnc(C3CC3)n2-c2sc3c(c21)C[C@@H](C(F)F)C3 [Example 7, (13R)-3-cyclopropyl-13-(difluoromethyl)-9-(2,6-difluorophenyl)-16-thia-2,4,5,8-tetrazatetracyclo [8.6.0.02,6.011,15]hexadeca-1(10),3,5,8,11(15)-pentaene] |  | 47.3 | 1.67 | 71% | 1.71 | 0.304 µM
5 | C[C@@H]1N=C(c2c(F)cccc2F)c2c(sc3c2C[C@@H](C(F)F)C3)-n2c(C3CC3)nnc21 [Example 8, (7S,13R)-3-cyclopropyl-13-(difluoromethyl)-9-(2,6-difluorophenyl)-7-methyl-16-thia-2,4,5,8-tetrazatetracyclo [8.6.0.02,6.011,15]hexadeca-1(10),3,5,8,11(15)-pentaene] |  | 99.2 | 2.00 | 37% | 1.37 | 0.455 µM
6 | Cc1nnc2n1-c1sc3c(c1C(c1c(F)cccc1Cl)=N[C@H]2C)C[C@@H](C(F)F)C3 [Example 9, (7S,13R)-9-(2-chloro-6-fluoro-phenyl)-13-(difluoromethyl)-3,7-dimethyl-16-thia-2,4,5,8-tetrazatetracyclo [8.6.0.02,6.011,15]hexadeca-1(10),3,5,8,11(15)-pentaene] |  | 101.3 | 2.01 | 38% | 1.38 | 0.366 µM
7 | Fc1cccc(F)c1C1=NCc2nnc(-c3cccnn3)n2-c2sc3c(c21)C[C@@H](C(F)F)C3 [Example 10, (13R)-13-(difluoromethyl)-9-(2,6-difluorophenyl)-3-pyridazin-3-yl-16-thia-2,4,5,8-tetrazatetracyclo [8.6.0.02,6.011,15]hexadeca-1(10),3,5,8,11(15)-pentaene] |  | 1090.8 | 3.04 | 47% | 1.47 | 3.22 µM
8 | C[C@@H]1N=C(c2c(F)cccc2Cl)c2c(sc3c2C[C@@H](C(F)F)C3)-n2c(C3CC3)nnc21 [Example 11, (7S,13R)-9-(2-chloro-6-fluoro-phenyl)-3-cyclopropyl-13-(difluoromethyl)-7-methyl-16-thia-2,4,5,8-tetrazatetracyclo [8.6.0.02,6.011,15]hexadeca-1(10),3,5,8,11(15)-pentaene] |  | 108.6 | 2.04 | 44% | 1.44 | 1.12 µM
9 | C[C@@H]1N=C(c2c(F)cccc2Cl)c2c(sc3c2C[C@@H](C(F)F)C3)-n2c(-c3cccnn3)nnc21 [Example 12, (7S,13R)-9-(2-chloro-6-fluoro-phenyl)-13-(difluoromethyl)-7-methyl-3-pyridazin-3-yl-16-thia-2,4,5,8-tetrazatetracyclo [8.6.0.02,6.011,15]hexadeca-1(10),3,5,8,11(15)-pentaene] |  | 176.0 | 2.25 | 62% | 1.62 | 2.36 µM
10 | Cc1nnc2n1-c1sc3c(c1C(c1c(F)cccc1F)=N[C@H]2C)C[C@@H](C(F)(F)F)C3 [Example 13, (7S,13R)-9-(2,6-difluorophenyl)-3,7-dimethyl-13-(trifluoromethyl)-16-thia-2,4,5,8-tetrazatetracyclo [8.6.0.02,6.011,15]hexadeca-1(10),3,5,8,11(15)-pentaene] |  | 43.5 | 1.64 | 51% | 1.51 | 0.705 µM
11 | Cc1nnc2n1-c1sc3c(c1C(c1c(F)cccc1F)=NC2)C[C@@H](C)C3 [Example 14, (13R)-9-(2,6-difluorophenyl)-3,13-dimethyl-16-thia-2,4,5,8-tetrazatetracyclo [8.6.0.02,6.011,15]hexadeca-1(10),3,5,8,11(15)-pentaene] |  | 36.2 | 1.56 | 68% | 1.68 | 0.101 µM
12 | Cc1nnc2n1-c1sc3c(c1C(c1c(F)cccc1F)=N[C@H]2C)C[C@@H](C)C3 [Example 15, (7S,13R)-9-(2,6-difluorophenyl)-3,7,13-trimethyl-16-thia-2,4,5,8-tetrazatetracyclo [8.6.0.02,6.011,15]hexadeca-1(10),3,5,8,11(15)-pentaene] |  | 16.1 | 1.21 | 45% | 1.45 | 0.101 µM
13 | Cc1nc2n(n1)-c1sc3c(c1C(c1c(F)cccc1F)=N[C@H]2C)C[C@@H](C(F)F)C3 [Example 16, (7S,13R)-13-(difluoromethyl)-9-(2,6-difluorophenyl)-4,7-dimethyl-16-thia-2,3,5,8-tetrazatetracyclo [8.6.0.02,6.011,15]hexadeca-1(10),3,5,8,11(15)-pentaene] |  | 191.1 | 2.28 | 32% | 1.32 | 0.448 µM
14 | Cc1nc2n(n1)-c1sc3c(c1C(c1c(F)cccc1F)=N[C@H]2C)C[C@H](C(F)F)C3 [Example 17, (7S,13S)-13-(difluoromethyl)-9-(2,6-difluorophenyl)-4,7-dimethyl-16-thia-2,3,5,8-tetrazatetracyclo [8.6.0.02,6.011,15]hexadeca-1(10),3,5,8,11(15)-pentaene] |  | 114.8 | 2.06 | 25% | 1.25 | 6.64 µM
